One data set deals with primary rat hepatocytes. Briefly: Inhibition of lipid synthesis ([1-14C]-acetate incorporation) in primary cultures of rat hepatocytes. It is filed as cell-based. Conditions: Hepatocyte, 4 h incubation with [1-14C]-acetate. A digest of the protocol:
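Monolayer primary hepatocytes from male Sprague-Dawley rats, serum-free overnight, were incubated 4 h with 0, 1, 3, 10, 30, 100 or 300 μM compound and 0.25 μCi [1-14C]-acetate per well. Total lipid synthesis was read as radioactivity in the lipid phase extracted into scintillant.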

The next data set relates to female obese Zucker rats. Briefly: Serum lipid and glycemic control variables in chow-fed obese female Zucker rats, daily oral gavage for two weeks. It is filed as in vivo, rat. The settings on record: Rattus norvegicus; for change in vivo at 30 mg/kg: 30 mg/kg daily oral, Table 9; for change in vivo at 100 mg/kg: 100 mg/kg daily oral, 100% = 2-fold increase, Table 8. The procedure, abridged:
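Female obese Zucker fa rats, 10–12 wk, 400–500 g, chow-fed, dosed daily by oral gavage for 14 days in CMC/Tween 20 or ethanol/PEG-200 vehicle. After a 6-h fast, serum was sampled pre-dose, day 7 and day 14. Triglycerides, total cholesterol, NEFA and β-hydroxybutyrate were measured, plus lipoprotein cholesterol by gel-filtration profiling.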

Where [1] appears, read: Table 7, ranges: confidence of estimate insufficient to assign a value.
Where [2] appears, read: 168 h, 1 wk, read-out: HDL-Cholesterol, Percent Change from Pre-Treatment.
[3] abbreviates: 168 h, 1 wk, read-out: NonHDL-Cholesterol, Percent Change from Pre-Treatment.
Setting [4] is: 168 h, 1 wk, read-out: TG, Percent Change from Pre-Treatment.
Where [5] appears, read: 336 h, 2 wk, read-out: HDL-Cholesterol, Percent Change from Pre-Treatment.
The mark [6] stands for this setting: 336 h, 2 wk, read-out: NonHDL-Cholesterol, Percent Change from Pre-Treatment.
Setting [7] is: 336 h, 2 wk, read-out: TG, Percent Change from Pre-Treatment.

Where two headings read alike, the source gives them in different places.

On to `Cc1ccc(C(C)(CCCCC(=O)CCCCC(C)(C(=O)O)c2ccc(C)cc2)C(=O)O)cc1` (centres unmarked) [Compound 210e, 2,12-Dimethyl-7-oxo-2,12-di-p-tolyltridecanedioic acid], for which the melting point (as a rule, the temperature of the solid-liquid transition) was 48 to 50 °C. Moreover, in the data set on primary rat hepatocytes (setting [1]), the IC50 (usually the point on the concentration scale where inhibition reaches its midpoint) was 100 to 300 µM. For the same molecule, the change in vivo at 30 mg/kg in the data set on female obese Zucker rats (setting [2]) was determined as 0%. In the data set with female obese Zucker rats (setting [3]), the change in vivo at 30 mg/kg worked out at 0%. In the data set on female obese Zucker rats (setting [4]), the change in vivo at 30 mg/kg is -11%. Besides, the change in vivo at 30 mg/kg in the data set on female obese Zucker rats (setting [5]) worked out at 10%. The change in vivo at 30 mg/kg with female obese Zucker rats (setting [6]) was determined as 47%. Further, in the data set on female obese Zucker rats (setting [7]), the change in vivo at 30 mg/kg came out at 12%.

Consider `CC(C)(CCCCC(=O)CCCCC1(C(=O)O)CC1)C(=O)O` [Compound 107c, 11-(1-Carboxycyclopropyl)-2,2-dimethyl-7-oxoundecanoic acid], for which the melting point lay in the range of 49 to 52 °C. This molecule also registered a 50% inhibitory concentration (IC50) in the data set with primary rat hepatocytes (Table 6) of 0.6 µM. The change in vivo at 100 mg/kg in the data set with female obese Zucker rats (setting [2]) was 104%. Besides, the change in vivo at 100 mg/kg in the data set on female obese Zucker rats (setting [3]) is -84%. Moreover, the change in vivo at 100 mg/kg in the data set with female obese Zucker rats (setting [4]) was -93%. The change in vivo at 100 mg/kg with female obese Zucker rats (setting [5]) is 248%. The change in vivo at 100 mg/kg with female obese Zucker rats (setting [6]) was -20%. Moreover, the change in vivo at 100 mg/kg with female obese Zucker rats (setting [7]) was -64%.

With `CC(C)(CCCCC(=O)CCCC(C)(C)C(=O)O)C(=O)O` [Compound 225, 2,2,11,11-Tetramethyl-6-oxododecanedioc acid], the melting point was 72 to 73 °C. Also, the half-inhibitory concentration (IC50) in the data set on primary rat hepatocytes (setting [1]) is 8 µM. In the data set on female obese Zucker rats (setting [2]), the change in vivo at 30 mg/kg turned out to be 7%. In the data set on female obese Zucker rats (setting [3]), the change in vivo at 30 mg/kg was -17%. The change in vivo at 30 mg/kg in the data set with female obese Zucker rats (setting [4]) is -2%. In the data set on female obese Zucker rats (setting [5]), the change in vivo at 30 mg/kg was determined as 4%. In the data set on female obese Zucker rats (setting [6]), the change in vivo at 30 mg/kg amounted to 92%. For the same molecule, the change in vivo at 30 mg/kg in the data set with female obese Zucker rats (setting [7]) is -22%.

On to `O=C(CCCCC1(C(=O)O)CCC1)CCCCC1(C(=O)O)CCC1` [Compound 107f, 1-[9-(1-Carboxycyclobutyl)-5-oxononyl]-1-cyclo-butanecarboxylic acid], for which the melting point was in the range of 69 to 70 °C. Moreover, in the data set on primary rat hepatocytes (Table 6), inhibition was half-maximal at 121 µM (IC50). Also, in the data set with female obese Zucker rats (setting [2]), the change in vivo at 100 mg/kg is -1%. In addition, in the data set on female obese Zucker rats (setting [3]), the change in vivo at 100 mg/kg was -32%. For the same molecule, the change in vivo at 100 mg/kg with female obese Zucker rats (setting [4]) was -58%. In addition, in the data set on female obese Zucker rats (setting [5]), the change in vivo at 100 mg/kg came to 10%. The change in vivo at 100 mg/kg in the data set on female obese Zucker rats (setting [6]) is -40%. Also, the change in vivo at 100 mg/kg in the data set on female obese Zucker rats (setting [7]) was -59%.
